The structures appear in SMILES notation. Marks after values point to notes of the source that are not given here.

In experiment [1] the test system is human breast cancer ZR-75-1 cell. Description: Cytotoxic action on ZR-75-1 cells (WST-8, 96 hr). The class given is cell-based. The settings on record: ZR-75-1, 96 hr. As to the method: (§1) The cytotoxic action of the compound of the present invention against human cancer cells was evaluated in vitro. In this experiment, (+)-JQ1 (Nature volume 468, pages 1067-1073 (23 Dec. 2010)) known to have an inhibitory activity on the binding of BRD4 protein and a ligand therefor was used as a positive control drug. Respective cells were suspended in 10% FBS/RPMI1640, seeded in a 96 well plate and cultured at 5% CO2, 37° C. overnight. A test compound dissolved in DMSO was diluted with 10% FBS/RPMI1640 and added and the cells were further cultured for 96 hr. After culturing, the viable cell number was measured using a cell number measurement WST-8 kit (Kishida Chemical Co., Ltd.). As a control, the measurement was performed under conditions free of the test compound. The cytotoxic activity of the compound of the present invention against human prostate cancer LNCaP cells is shown in IC50 value in Table 1. The IC50 value is a concentration of the compound showing 50% cell survival rate when the cell survival rate thereof under compound untreated condition is 100%. It was calculated from the straight line connecting the cell survival rate at two points enclosing the 50% cell survival rate and the compound concentration. […]
(Tetrazolium assays rely on reduction of a dye to a coloured formazan, in cell work by metabolically active cells.)

Experiment [2] relates to human pancreatic cancer BxPC-3 cell. As to the kind of experiment: Cytotoxic action on BxPC-3 cells (WST-8, 96 hr). The class given is cell-based. The settings on record: BxPC-3, 96 hr. As to the method:
as §1

Experiment [3] relates to human non-small cell lung cancer NCI-H2126 cell. Description: Cytotoxic action on NCI-H2126 cells (WST-8, 96 hr). The class given is cell-based. The settings on record: NCI-H2126, 96 hr. As to the method:
as §1

Experiment [4] deals with human small cell lung cancer NCI-H82 cell. Description: Cytotoxic action on NCI-H82 cells (WST-8, 96 hr). The class given is cell-based. The conditions noted are these: NCI-H82, 96 hr. As to the method:
as §1

For experiment [5], the system named is human castration-resistant prostate cancer PC-3 cell. Description: Cytotoxic action on PC-3 cells (WST-8, 96 hr). The class given is cell-based. The conditions noted are these: PC-3, 96 hr. The method, then: as §1
For experiment [6], the system named is human triple negative breast cancer MDA-MB-231 cell. As to the kind of experiment: Cytotoxic action on MDA-MB-231 cells (WST-8, 96 hr). The class given is cell-based. The settings on record: MDA-MB-231, 96 hr. The method, then: as §1
Experiment [7] concerns human liver cancer HLF cell. As to the kind of experiment: Cytotoxic action on HLF cells (WST-8, 96 hr). The class given is cell-based. As to the method: as §1
For experiment [8], the system named is human acute myeloid leukemia MV-4-11 cell transplanted mouse. As to the kind of experiment: Antitumor effect of 1 week intermittent administration to MV-4-11 cell transplanted mouse (tail vein, days 1 and 8). The experiment is classed as in vivo. The settings on record: tumor weight on day 15. As to the method: (§2) The in vivo antitumor effect of the compound of the present invention was studied using human acute myeloid leukemia MV-4-11 cell transplanted mouse. MV-4-11 cells were subcutaneously transplanted into the inguinal region of male, 6-week-old BALB/c nude mouse (5×10^6 cells/mouse). The compound of the present invention was administered into the tail vein on days 1 and 8 from the time point when the assumed tumor volume determined from ½ab^2 (a is major axis and b is minor axis of tumor) reached about 200 mm^3 (day 1). The control group was administered with a solvent, 10% Kolliphor ELP/5% ethanol/85% saline solution. On day 15, the tumor was isolated, the weight was measured, and the tumor growth inhibitory rate IR (%) was calculated by the following formula. tumor growth inhibitory rate IR (%)={1−(average tumor weight of administration group/average tumor weight of nonadministration control group)}×100(%)

The subject of experiment [9] is human acute myeloid leukemia MV-4-11 cell. Description: Cytotoxic action on MV-4-11 cells (WST-8, 96 hr). The experiment is classed as cell-based. The conditions noted are these: MV4-11, MV-4-11, 96 hr. The method, then: as §1
The subject of experiment [10] is human acute myeloid leukemia MV-4-11 cell transplanted mouse. As to the kind of experiment: Antitumor effect in MV-4-11 cell transplanted mouse (tail vein, days 1, 5, 9, 13). The conditions noted are these: tumor weight on day 15. The class given is in vivo. As to the method: as §2, with “1, 5, 9, 13” for “1 and 8”, “100” for “200”, “20% hydroxypropyl-β-cyclodextrin” for “10% Kolliphor ELP/5% ethanol/85% saline”

The subject of experiment [11] is human ovarian cancer A2780 cell. Description: Cytotoxic action on A2780 cells (WST-8, 96 hr). The class given is cell-based. The conditions noted are these: A2780, 96 hr. As to the method:
as §1

The test system of experiment [12] is human T-cell leukemia Jurkat cells. Description: Cytotoxic action on Jurkat cells (WST-8, 96 hr). The class given is cell-based. The method, then:
as §1

Experiment [13] deals with human uterine sarcoma MES-SA cell. As to the kind of experiment: Cytotoxic action on MES-SA cells (WST-8, 96 hr). The class given is cell-based. As to the method: as §1
Experiment [14] has as its system human diffuse large B-cell lymphoma SU-DHL-6 cell. Description: Cytotoxic action on SU-DHL-6 cells (WST-8, 96 hr). The experiment is classed as cell-based. The settings on record: SU-DHL-6, 96 hr. As to the method:
as §1

For `COC(=O)C[C@@H]1N=C(c2ccc(-c3ccc(C(=O)NCc4ccc(S(=O)(=O)Nc5ccc(C)c6c(C#N)c[nH]c56)cc4)cc3)cc2)c2c(sc(C)c2C)-n2c(C)nnc21` [Example 1, methyl [(6S)-4-{4′-[({4-[(3-cyano-4-methyl-1H-indol-7-yl)sulfamoyl]phenyl}methyl)carbamoyl][1,1′-biphenyl]-4-yl}-2,3,9-trimethyl-6H-thieno[3,2-f][1,2,4]triazolo[4,3-a][1,4]diazepin-6-yl]acetate], the IC50 in experiment [1] came to 27 nM; in experiment [2], 3.3 nM; in experiment [3] it was 6.6 nM; in experiment [4] it was 21 nM; in experiment [5], 0.88 nM; in experiment [6], 4 nM. For the same molecule, the IC50 in [7] is 2.9 nM; in experiment [9], 0.16 nM; in [11] it was 0.19 nM; in [12] it was 1.3 nM; in experiment [13], 1.8 nM; in experiment [14], 0.44 nM. Further, the “tumor growth inhibitory rate” value in experiment [8] (4 mg/kg/day) was 56** %; in [8] (12.5 mg/kg/day), 92** %; in experiment [10] (1 mg/kg/day) it was 68.4* %; in experiment [10] (3 mg/kg/day), 95.3* %.
